We go through 10 compounds from article PMC6010129, “Evaluation of sulphonamide derivatives acting as inhibitors of human carbonic anhydrase isoforms I, II and Mycobacterium tuberculosisβ-class enzyme Rv3273” (Journal of Enzyme Inhibition and Medicinal Chemistry, 2018).

One experiment deals with T1, mtCA 3 (Mycobacterium tuberculosis, UniProt P96878).
T1 construct: beta-class carbonic anhydrase
The experiment can be described thus: biochemical. On the set-up: stopped-flow CO2 hydration assay, phenol red absorbance at 557 nm, 15 min pre-incubation, Ki by Cheng-Prusoff. As for the experimental part: An Sx.18Mv-R Applied Photophysics (Oxford, UK) stopped-flow instrument has been used to assay the catalytic activity of various CA isozymes for CO2 hydration reaction. Phenol red (at a concentration of 0.2 mM) was used as indicator, working at the absorbance maximum of 557 nm, with 10 mM Hepes (pH 7.5) or 10 mM Tris (pH 8.5) as buffers, and 0.1 M Na2SO4 (for maintaining constant ionic strength, which is not inhibitory against these enzymes), following the CA-catalysed CO2 hydration reaction for a period of 10 s at 25 °C. The CO2 concentrations ranged from 1.7 to 17 mM for the determination of the kinetic parameters and […]. For each inhibitor at least six traces of the initial 5–10% of the reaction have been used for determining the initial rate. The uncatalysed rates were determined in the same manner and subtracted from the total observed rates. Stock solutions of inhibitors (10 mM) were prepared in distilled-deionised […] to 1 nM using the assay buffer. Inhibitor and enzyme solutions were pre-incubated together for 15 min (standard assay at room temperature) prior to assay, in order to allow for the formation of the enzyme–inhibitor complex. The inhibition constant (KI), was obtained by considering the classical Michaelis–Menten equation and the Cheng-Prusoff algorithm by using non-linear least squares fitting as reported earlier. The compounds 5 and 6 reported here were investigated as inhibitors of three CAs involved in crucial physiologic processes and known to act as drug targets, i.e. the human (h) isoforms hCA I and II (belonging to the α-CA class) and the bacterial enzyme mtCA3 from Mycobacterium tuberculosis (a β-class CA) (Table 3). Acetazolamide (AAZ), a clinically used sulphonamide has been employed as standard inhibitor in the assay.

For a further experiment, the target named is T2, hCA I (Homo sapiens, UniProt P00915).
T2 construct: gene CA1; cytosolic isoform
T2 sequence (P00915 2-261): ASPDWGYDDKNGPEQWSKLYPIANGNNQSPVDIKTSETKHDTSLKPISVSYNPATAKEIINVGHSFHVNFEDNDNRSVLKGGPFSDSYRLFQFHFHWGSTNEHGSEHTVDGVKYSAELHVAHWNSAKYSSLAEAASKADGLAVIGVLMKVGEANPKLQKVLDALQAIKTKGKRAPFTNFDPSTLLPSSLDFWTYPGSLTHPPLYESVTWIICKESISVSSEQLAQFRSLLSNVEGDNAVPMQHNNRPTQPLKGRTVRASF
The experiment can be described thus: stopped-flow CO2 hydrase assay. The class given is biochemical. The source says: stopped-flow CO2 hydrase assay on hCA I

A further experiment deals with T3, hCA II (Homo sapiens, UniProt P00918).
T3 construct: gene CA2; cytosolic isoform
In words: stopped-flow CO2 hydrase assay. It is filed as biochemical. From the text: stopped-flow CO2 hydrase assay on hCA II

T1 sequence (P96878 entry or part of it): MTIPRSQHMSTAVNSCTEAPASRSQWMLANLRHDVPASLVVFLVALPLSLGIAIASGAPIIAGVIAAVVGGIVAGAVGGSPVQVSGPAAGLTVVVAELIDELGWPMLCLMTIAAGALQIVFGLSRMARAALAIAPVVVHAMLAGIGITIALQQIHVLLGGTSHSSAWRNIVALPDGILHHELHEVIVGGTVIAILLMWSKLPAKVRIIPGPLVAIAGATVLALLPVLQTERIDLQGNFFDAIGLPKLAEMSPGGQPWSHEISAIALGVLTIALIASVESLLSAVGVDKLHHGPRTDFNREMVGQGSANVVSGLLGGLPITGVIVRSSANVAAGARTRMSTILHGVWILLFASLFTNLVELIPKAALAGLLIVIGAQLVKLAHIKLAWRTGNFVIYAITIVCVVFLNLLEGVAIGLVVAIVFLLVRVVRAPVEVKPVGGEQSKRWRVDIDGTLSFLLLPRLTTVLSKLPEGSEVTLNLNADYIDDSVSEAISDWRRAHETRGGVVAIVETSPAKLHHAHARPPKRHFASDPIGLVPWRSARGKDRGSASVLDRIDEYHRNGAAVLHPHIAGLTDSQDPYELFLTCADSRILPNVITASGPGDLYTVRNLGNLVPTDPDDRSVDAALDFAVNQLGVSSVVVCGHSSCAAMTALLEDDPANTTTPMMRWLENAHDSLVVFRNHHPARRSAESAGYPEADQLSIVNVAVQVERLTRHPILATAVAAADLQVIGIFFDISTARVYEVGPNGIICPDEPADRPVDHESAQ

The term Ki denotes a dissociation constant, usually derived from enzyme kinetics or from competition with a known ligand. A lower Ki goes with higher affinity. As to `CC1=NN(C(=O)CNc2ccc(S(N)(=O)=O)cc2)C(c2ccc(N(C)C)cc2)C1` (stereo not drawn) [5t], the Ki at mtCA 3 is 1740 nM; at hCA I, 842 nM; on hCA II, 5150 nM.
With `CC1=NN(C(=O)CNc2ccc(S(N)(=O)=O)cc2)C(c2cccs2)C1` (stereo not drawn) [5u, 4-((2-(3-Methyl-5-(thiophen-2-yl)-4,5-dihydro-1H-pyrazol-1-yl)-2-oxoethyl)amino)benzenesulphonamide], the results for the Ki at mtCA 3, on hCA I and at hCA II were 1450 nM, 798 nM and 126 nM, respectively.
On the same counts, the results for `NS(=O)(=O)c1ccc(NCC(=O)N/N=C/c2ccccc2)cc1` [6a, 4-((2-(2-Benzylidenehydrazinyl)-2-oxoetehyl)amino) benzenesulphonamide] are more than 10000 nM, 220 nM and 549 nM.
On the same counts, the results for `Cc1ccc(C=NNC(=O)CNc2ccc(S(N)(=O)=O)cc2)cc1` [6b, 4-((2-(2-(4-Methylbenzylidene) hydrazinyl)-2-oxoethyl)amino)benzene sulphonamide] are more than 10000 nM, 266 nM and 914 nM.
Take `NS(=O)(=O)c1ccc(NCC(=O)N/N=C/c2ccccc2O)cc1` [6c, 4-((2-(2-(2-Hydroxybenzylidene)hydrazinyl)-2-oxoethyl)amino) benzenesulphonamide]: the Ki came to 2150 nM at mtCA 3, 54.6 nM on hCA I and 32.1 nM on hCA II.
For `NS(=O)(=O)c1ccc(NCC(=O)N/N=C/c2ccccn2)cc1` [6d, 4-((2-Oxo-2-(2-(pyridin-2-ylmethylene) hydrazinyl)ethyl)amino) benzenesulphonamide] the same measures were more than 10000 nM, 316 nM and 418 nM.
For `COc1ccc(/C=N/NC(=O)CNc2ccc(S(N)(=O)=O)cc2)cc1` [6f, 4-((2-(2-(4-Methoxybenzylidene) hydrazinyl)-2-oxoethyl)amino) benzenesulphonamide] the same measures were 2130 nM, 648 nM and 703 nM.
Turning to `COc1cc(/C=N/NC(=O)CNc2ccc(S(N)(=O)=O)cc2)cc(OC)c1O` [6h, 4-((2-(2-(4-Hydroxy-3,5-dimethoxybenzylidene)hydrazinyl)-2-oxoethyl)amino) benzenesulphonamide], the Ki on mtCA 3 was determined as 2000 nM; at hCA I, 292 nM; on hCA II it was 483 nM.
`COc1cc(/C=N/NC(=O)CNc2ccc(S(N)(=O)=O)cc2)cc(OC)c1OC` [6i, 4-((2-Oxo-2-(2-(3,4,5-trimethoxybenzylidene) hydrazinyl)ethyl)amino) benzenesulphonamide]: the Ki is 216 nM at mtCA 3, 890 nM on hCA I and 446 nM on hCA II.
For `COc1cccc(C=NNC(=O)CNc2ccc(S(N)(=O)=O)cc2)c1OC` [6j, 4-((2-(2-(2,3-Dimethoxybenzylidene)hydrazinyl)-2-oxoethyl)amino)benzenesulphonamide] the same measures were 232 nM, 785 nM and 240 nM.
